{"source": "paper PMC4645630", "about": "(The Journal of Biological Chemistry, 2015)", "key": {"[1]": {"target": "T1, GCGR (Homo sapiens, UniProt P47871)", "T1 sequence (P47871 26-477)": "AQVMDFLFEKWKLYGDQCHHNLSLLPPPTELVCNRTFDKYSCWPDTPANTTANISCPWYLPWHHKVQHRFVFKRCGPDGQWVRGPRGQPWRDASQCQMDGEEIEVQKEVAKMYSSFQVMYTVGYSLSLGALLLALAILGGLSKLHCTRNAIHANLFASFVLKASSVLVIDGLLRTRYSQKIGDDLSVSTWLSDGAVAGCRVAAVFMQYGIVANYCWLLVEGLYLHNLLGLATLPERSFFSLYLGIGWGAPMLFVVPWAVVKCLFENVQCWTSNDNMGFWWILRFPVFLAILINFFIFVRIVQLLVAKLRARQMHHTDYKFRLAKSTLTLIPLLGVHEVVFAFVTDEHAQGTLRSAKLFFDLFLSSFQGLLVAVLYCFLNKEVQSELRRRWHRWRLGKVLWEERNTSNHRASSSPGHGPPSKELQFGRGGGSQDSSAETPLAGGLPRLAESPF", "experiment": "Whole cell competition binding with [125I]glucagon, GCGR without RAMP2", "parameters": "expressed in transfected cells", "conditions": "no RAMP2", "procedure": "Cells were seeded into 6-well plates and grown to 80% confluence before transfection with 1.5 μg of plasmid DNA and incubated for a further 24 h. Medium was then replaced with fresh DMEM, and cells were transferred onto a 96-well plate coated with poly-D-lysine and incubated for 24 h to achieve confluence prior to assay. […] For the assay, cells were washed in assay buffer, 0.1 nM of radioligand and various concentrations of the peptides were added, and the plate was incubated for 16 h at 4 °C. Following washing with ice-cold assay buffer, 100 μl of NaOH (0.1 M) was added to each well, and the plate was incubated for 5 min on ice. Cells were removed, and the plate was washed with 100 μl of HCl (0.1 M). Radioactivity was determined in 2 ml of Safefluor scintillant (PerkinElmer Life Sciences) using a liquid scintillation counter with a count time of 3 min/sample. Values were corrected for nonspecific binding as determined by the amount of radioligand detected bound to cells not expressing GCGR."}, "[2]": {"target": "T2, GCGR with RAMP2 (Homo sapiens, UniProt O60895+P47871)", "T2 construct": "expressed in transfected cells; host or cells: HEK-293 (293T)", "T2 sequence (P47871 26-477)": "as above", "T2 sequence (O60895 43-175 partner)": "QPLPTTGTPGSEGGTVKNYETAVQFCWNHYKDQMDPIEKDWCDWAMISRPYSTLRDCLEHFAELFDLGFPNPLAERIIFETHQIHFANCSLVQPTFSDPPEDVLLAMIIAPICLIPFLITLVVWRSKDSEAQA", "experiment": "cAMP accumulation assay, HEK-293 cells co-expressing GCGR and RAMP2", "type": "cell-based", "conditions": "Table 3, cAMP", "procedure": "(§1) Data were analyzed using Prism version 6.0e (GraphPad Software, San Diego, CA). EC50 and Emax values were obtained through fitting of a three-parameter logistic equation. Relative efficacy (log τ) and equilibrium dissociation constants (log KA) were generated through use of an operational model for partial agonism ([23]). […] Statistical differences were analyzed before data were normalized, using a Student's test or one-way analysis of variance (ANOVA) with Bonferroni's or Dunnett's multiple comparisons as appropriate, and p < 0.05 was considered significant."}, "[3]": {"target": "T2, GCGR with RAMP2", "experiment": "Yeast growth reporter assay, GPA1/Gαi chimera strain expressing GCGR and RAMP2", "type": "cell-based", "conditions": "Table 5, yeast GPA1/Gαi", "procedure": "(§2) General yeast procedures were performed as described previously ([17], [18]). […] Mammalian GPCRs and RAMPs were introduced to the yeast strains under the control of the GAPDH promoter using plasmids containing either ura3 (p426-GPD) or leu2 (p425-GPD). Plasmids were transformed in a 1:1 ratio to enable equal expression levels of both the RAMP and receptors. Transformation was achieved using the lithium acetate/single-stranded DNA/polyethylene glycol method as described previously ([20]). Positive transformants were selected and maintained on medium lacking uracil and leucine. Receptor signaling was measured using the yeast growth assay ([21]) adapted as described previously ([17]). Initially, cell growth was performed in SD−URA−LEU medium at 30 °C to select for only those cells expressing both plasmids. Cells were then cultured to remove basal activity in SD−URA−LEU−HIS medium overnight at 30 °C and assayed using fluorescein-di-β-D-glucopyranoside-supplemented medium in the presence of different concentrations of ligand (0.01 nM to 100 mM). Fluorescence was measured on a TECAN Infinite M200 microplate reader (TECAN Ultra Evolution, Reading, UK).\nas §1"}, "[4]": {"target": "T1, GCGR", "experiment": "cAMP accumulation assay, HEK-293 cells expressing GCGR with vector control", "type": "cell-based", "parameters": "expressed in transfected cells; host or cells: HEK-293 (293T)", "procedure": "as §1"}, "[5]": {"target": "T2, GCGR with RAMP2", "experiment": "Whole cell competition binding with [125I]glucagon, GCGR with RAMP2", "conditions": "whole cells, [125I]glucagon 0.1 nM, 16 h at 4 °C"}, "[6]": {"target": "T1, GCGR", "experiment": "Yeast growth reporter assay, GPA1/Gαs chimera strain expressing GCGR with vector", "type": "cell-based", "parameters": "expressed in transfected cells; host or cells: HEK-293 (293T)", "procedure": "as §2, with “Cells were then cultured to remove basal activity in SD−URA−LEU−HIS medium overnight at 30 °C and assayed using fluorescein-di-β-D-glucopyranoside-supplemented medium in the presence of different concentrations of ligand (0.01 nM to 100 mM).” left out\n(§3) Data were analyzed using Prism version 6.0e (GraphPad Software, San Diego, CA). […] Statistical differences were analyzed before data were normalized, using a Student's test or one-way analysis of variance (ANOVA) with Bonferroni's or Dunnett's multiple comparisons as appropriate, and p < 0.05 was considered significant."}, "[7]": {"target": "T1, GCGR", "experiment": "Yeast growth reporter assay, GPA1/Gαi chimera strain expressing GCGR with vector", "type": "cell-based", "parameters": "expressed in transfected cells; host or cells: HEK-293 (293T)", "procedure": "as §2, with “Cells were then cultured to remove basal activity in SD−URA−LEU−HIS medium overnight at 30 °C and assayed using fluorescein-di-β-D-glucopyranoside-supplemented medium in the presence of different concentrations of ligand (0.01 nM to 100 mM).” left out\nas §3"}, "[8]": {"target": "T2, GCGR with RAMP2", "experiment": "Yeast growth reporter assay, GPA1/Gαs chimera strain expressing GCGR and RAMP2", "type": "cell-based", "conditions": "Table 4, yeast GPA1/Gαs", "procedure": "as §2, §1"}, "[9]": {"conditions": "GCGR + RAMP2, mean ± S.E., five repeats"}, "[10]": {"conditions": "RAMP2, operational model relative to glucagon"}, "[11]": {"conditions": "RAMP2, percentage of glucagon response without RAMP co-expression"}}}
{"compound": "CCCCCCCCCCCCCCCC(=O)N[C@@H](CCC(=O)NCCCC[C@H](NC(=O)[C@H](C)NC(=O)[C@H](C)NC(=O)[C@H](CCC(N)=O)NC(=O)CNC(=O)[C@H](CCC(=O)O)NC(=O)[C@H](CC(C)C)NC(=O)[C@H](Cc1ccc(O)cc1)NC(=O)[C@H](CO)NC(=O)[C@H](CO)NC(=O)[C@@H](NC(=O)[C@H](CC(=O)O)NC(=O)[C@H](CO)NC(=O)[C@@H](NC(=O)[C@H](Cc1ccccc1)NC(=O)[C@@H](NC(=O)CNC(=O)[C@H](CCC(=O)O)NC(=O)[C@H](C)NC(=O)[C@@H](N)Cc1c[nH]cn1)[C@@H](C)O)[C@@H](C)O)C(C)C)C(=O)N[C@@H](CCC(=O)O)C(=O)N[C@@H](Cc1ccccc1)C(=O)N[C@H](C(=O)N[C@@H](C)C(=O)N[C@@H](Cc1c[nH]c2ccccc12)C(=O)N[C@@H](CC(C)C)C(=O)N[C@H](C(=O)N[C@@H](CCCNC(=N)N)C(=O)NCC(=O)N[C@@H](CCCNC(=N)N)C(=O)NCC(=O)O)C(C)C)[C@@H](C)CC)C(=O)O", "note": "[Liraglutide]", "values": [{"measurement": "affinity for the GCGR relative to the native peptide (glucagon)", "setting": "[1]; whole cell competition binding", "result": "higher affinity"}, {"measurement": "binding to the GCGR in competition with glucagon", "setting": "[1]; whole cells, [125I]glucagon 0.1 nM, 16 h at 4 °C", "result": "bound to the GCGR"}, {"measurement": "log τ", "setting": "[2]; GCGR + RAMP2, coupling efficiency, operational model relative to glucagon", "result": "N.R"}, {"measurement": "pKA", "setting": "[2]; GCGR + RAMP2, operational model for partial agonism relative to glucagon", "result": "N.R"}, {"measurement": "Emax", "setting": "[2]; GCGR + RAMP2, percentage of glucagon response without RAMP co-transfection", "result": "N.R"}, {"measurement": "pEC50", "setting": "[2]; HEK-293, GCGR + RAMP2, mean ± S.E., five repeats", "result": "N.R"}, {"measurement": "pEC50", "setting": "[3]; [9]", "result": "N.R"}, {"measurement": "log τ", "setting": "[3]; [10]", "result": "N.R"}, {"measurement": "pKA", "setting": "[3]; [10]", "result": "N.R"}, {"measurement": "Emax", "setting": "[3]; [11]", "result": "N.R"}, {"measurement": "EC50", "setting": "[4]; Table 3, cAMP, HEK-293, GCGR + vector, mean ± S.E., five repeats, SEM", "result": 10, "unit": "nM"}, {"measurement": "binding to the GCGR upon RAMP2 co-transfection", "setting": "[5]", "result": "failed to bind"}, {"measurement": "Emax", "setting": "[6]", "result": "80.1 ± 7.5", "unit": "%"}, {"measurement": "EC50", "setting": "[6]; Table 4, yeast GPA1/Gαs, GCGR + vector, mean ± S.E., five repeats, SEM", "result": 3160, "unit": "nM"}, {"measurement": "Emax", "setting": "[7]", "result": "84 ± 9.4", "unit": "%"}, {"measurement": "EC50", "setting": "[7]; Table 5, yeast GPA1/Gαi, GCGR + vector, mean ± S.E., five repeats, SEM", "result": 20, "unit": "nM"}, {"measurement": "pEC50", "setting": "[8]; [9]", "result": "N.R"}, {"measurement": "log τ", "setting": "[8]; [10]", "result": "N.R"}, {"measurement": "pKA", "setting": "[8]; [10]", "result": "N.R"}, {"measurement": "Emax", "setting": "[8]; [11]", "result": "N.R"}]}
{"compound": "des-His^1-[Glu^9]glucagon(1–29) amide", "values": [{"measurement": "effect of GCGR antagonist on GLP-1 and liraglutide signaling through the GCGR", "setting": "[4]; cAMP, HEK-293 cells with GCGR", "result": "inhibited"}]}
